Numbers after ± are expanded uncertainties.
Experiment: xn = mol fraction of the nth substance listed
Conditions: 298.15 K, Liquid, Vibrating tube method

CCCCCCCC [octane] + c1ccccc1
mass density [kg/m3]
Conditions | x1 = 0.1097 | x1 = 0.2036 | x1 = 0.2984 | x1 = 0.4069 | x1 = 0.5027 | x1 = 0.5904 | x1 = 0.6989 | x1 = 0.7964 | x1 = 0.904 | x1 = 1
100 kPa | 838.3 ± 0.2 | 813.5 ± 0.2 | 792.3 ± 0.2 | 771.6 ± 0.2 | 755.7 ± 0.2 | 743 ± 0.3 | 729.1 ± 0.3 | 718.2 ± 0.3 | 707.3 ± 0.3 | 698.7 ± 0.3
2130 kPa | 839.9 ± 0.2 | 815.2 ± 0.2 | 794 ± 0.3 | 773.3 ± 0.3 | 757.4 ± 0.3 | 744.8 ± 0.3 | 730.9 ± 0.3 | 719.9 ± 0.3 | 709.1 ± 0.3 | 700.4 ± 0.3
4150 kPa | 841.6 ± 0.2 | 816.9 ± 0.3 | 795.7 ± 0.3 | 775.1 ± 0.3 | 759.2 ± 0.3 | 746.5 ± 0.3 | 732.6 ± 0.3 | 721.7 ± 0.3 | 710.8 ± 0.3 | 702.2 ± 0.3
6180 kPa | 843.3 ± 0.3 | 818.6 ± 0.3 | 797.4 ± 0.3 | 776.8 ± 0.3 | 760.9 ± 0.3 | 748.2 ± 0.3 | 734.3 ± 0.3 | 723.4 ± 0.3 | 712.4 ± 0.3 | 703.8 ± 0.3
8210 kPa | 844.9 ± 0.3 | 820.2 ± 0.3 | 799.1 ± 0.3 | 778.5 ± 0.3 | 762.5 ± 0.3 | 749.9 ± 0.3 | 735.9 ± 0.3 | 725 ± 0.3 | 714.1 ± 0.3 | 705.4 ± 0.3
10230 kPa | 846.5 ± 0.3 | 821.8 ± 0.3 | 800.7 ± 0.3 | 780.1 ± 0.3 | 764.2 ± 0.3 | 751.5 ± 0.3 | 737.6 ± 0.3 | 726.7 ± 0.3 | 715.7 ± 0.3 | 707 ± 0.3
11250 kPa | 847.3 ± 0.3 | 822.7 ± 0.3 | 801.5 ± 0.3 | 780.9 ± 0.3 | 765 ± 0.3 | 752.3 ± 0.3 | 738.4 ± 0.3 | 727.5 ± 0.3 | 716.5 ± 0.3 | 707.8 ± 0.3
12260 kPa | 848.1 ± 0.3 | 823.5 ± 0.3 | 802.4 ± 0.3 | 781.7 ± 0.3 | 765.8 ± 0.3 | 753.2 ± 0.3 | 739.2 ± 0.3 | 728.3 ± 0.3 | 717.3 ± 0.3 | 708.6 ± 0.4
14290 kPa | 849.7 ± 0.3 | 825.1 ± 0.3 | 803.9 ± 0.3 | 783.4 ± 0.3 | 767.4 ± 0.3 | 754.7 ± 0.3 | 740.8 ± 0.3 | 729.8 ± 0.4 | 718.8 ± 0.4 | 710.1 ± 0.4
16310 kPa | 851.2 ± 0.3 | 826.6 ± 0.3 | 805.5 ± 0.3 | 784.9 ± 0.3 | 769 ± 0.3 | 756.3 ± 0.3 | 742.4 ± 0.4 | 731.4 ± 0.4 | 720.4 ± 0.4 | 711.7 ± 0.4
18340 kPa | 852.7 ± 0.3 | 828.1 ± 0.3 | 807 ± 0.3 | 786.4 ± 0.3 | 770.5 ± 0.3 | 757.8 ± 0.4 | 743.8 ± 0.4 | 732.9 ± 0.4 | 721.9 ± 0.4 | 713.1 ± 0.4
20370 kPa | 854.2 ± 0.3 | 829.6 ± 0.3 | 808.5 ± 0.3 | 788 ± 0.3 | 772 ± 0.4 | 759.3 ± 0.4 | 745.3 ± 0.4 | 734.4 ± 0.4 | 723.3 ± 0.4 | 714.6 ± 0.4
22390 kPa | 855.7 ± 0.3 | 831.1 ± 0.3 | 810 ± 0.3 | 789.4 ± 0.4 | 773.4 ± 0.4 | 760.8 ± 0.4 | 746.8 ± 0.4 | 735.8 ± 0.4 | 724.8 ± 0.4 | 715.9 ± 0.4
24420 kPa | 857.1 ± 0.3 | 832.6 ± 0.3 | 811.5 ± 0.4 | 790.8 ± 0.4 | 774.9 ± 0.4 | 762.2 ± 0.4 | 748.2 ± 0.4 | 737.2 ± 0.4 | 726.2 ± 0.4 | 717.4 ± 0.4
26450 kPa | 858.5 ± 0.3 | 834 ± 0.3 | 812.9 ± 0.4 | 792.3 ± 0.4 | 776.3 ± 0.4 | 763.6 ± 0.4 | 749.6 ± 0.4 | 738.7 ± 0.4 | 727.5 ± 0.5 | 718.8 ± 0.5
28470 kPa | 859.9 ± 0.3 | 835.4 ± 0.3 | 814.3 ± 0.4 | 793.7 ± 0.4 | 777.7 ± 0.4 | 765 ± 0.4 | 751 ± 0.4 | 740 ± 0.5 | 728.9 ± 0.5 | 720.1 ± 0.5
29490 kPa | 860.6 ± 0.3 | 836.1 ± 0.3 | 815 ± 0.4 | 794.3 ± 0.4 | 778.4 ± 0.4 | 765.7 ± 0.4 | 751.7 ± 0.4 | 740.7 ± 0.5 | 729.6 ± 0.5 | 720.8 ± 0.5
30500 kPa | 861.3 ± 0.3 | 836.8 ± 0.4 | 815.7 ± 0.4 | 795 ± 0.4 | 779.1 ± 0.4 | 766.4 ± 0.4 | 752.4 ± 0.5 | 741.4 ± 0.5 | 730.2 ± 0.5 | 721.4 ± 0.5
32530 kPa | 862.6 ± 0.3 | 838.1 ± 0.4 | 817 ± 0.4 | 796.4 ± 0.4 | 780.4 ± 0.4 | 767.7 ± 0.5 | 753.7 ± 0.5 | 742.7 ± 0.5 | 731.5 ± 0.5 | 722.7 ± 0.5
34550 kPa | 864 ± 0.3 | 839.5 ± 0.4 | 818.4 ± 0.4 | 797.8 ± 0.4 | 781.8 ± 0.4 | 769.1 ± 0.5 | 755 ± 0.5 | 744.1 ± 0.5 | 732.9 ± 0.5 | 724 ± 0.5
36580 kPa | 865.3 ± 0.3 | 840.8 ± 0.4 | 819.7 ± 0.4 | 799.1 ± 0.4 | 783.1 ± 0.5 | 770.4 ± 0.5 | 756.4 ± 0.5 | 745.4 ± 0.5 | 734.2 ± 0.5 | 725.3 ± 0.6
38600 kPa | 866.6 ± 0.4 | 842.1 ± 0.4 | 821 ± 0.4 | 800.4 ± 0.4 | 784.4 ± 0.5 | 771.7 ± 0.5 | 757.6 ± 0.5 | 746.5 ± 0.5 | 735.4 ± 0.6 | 726.5 ± 0.6
39620 kPa | 867.3 ± 0.4 | 842.7 ± 0.4 | 821.6 ± 0.5 | 801 ± 0.5 | 785 ± 0.5 | 772.3 ± 0.5 | 758.2 ± 0.5 | 747.1 ± 0.6 | 736 ± 0.6 | 727.1 ± 0.6

— the NIST ThermoML archive (doi:10.1016/j.jct.2007.11.009)
